Results published in patent publication US12077503B2, “Substituted cyclic amides and their use as herbicides” (FMC CORPORATION, priority 2015, dated 2024).

Experiments:
Type in all cases: in vivo
[1] = test system: barnyardgrass (Echinochloa crus-galli); experiment: Test A postemergence; settings: Echinochloa crus-galli, post-emergence, 240 h, Postemergence
Summary of the method: (§1)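 Preemergence directed soil spray on seeded pots, or postemergence application to plants 2–10 cm, one- to two-leaf. Solvent mixture non-phytotoxic, with surfactant. Scored ~10 d later, visually, 0–100 vs untreated.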

[2] = test system: Galium (catchweed bedstraw, Galium aparine); experiment: Test A postemergence; settings: Galium, post-emergence, 240 h, Postemergence, read-out: Galium plant response rating (0 to 100 scale)
Summary of the method: as §1

[3] = test system: giant foxtail (Setaria faberii); experiment: Test A postemergence; settings: Setaria faberi, post-emergence, 240 h, Postemergence, read-out: Foxtail, Giant plant response rating (0 to 100 scale)
Summary of the method: as §1

[4] = test system: wheat (Triticum aestivum); experiment: Test A postemergence; settings: Triticum aestivum, post-emergence, 240 h, Postemergence, read-out: Wheat plant response rating (0 to 100 scale)
Summary of the method: as §1

[5] = test system: ryegrass, Italian (Italian ryegrass, Lolium multiflorum); experiment: Test A postemergence; settings: Lolium multiflorum, post-emergence, 240 h, Postemergence, read-out: Ryegrass, Italian plant response rating (0 to 100 scale)
Summary of the method: as §1

corn (Zea mays) = experiment: Test A postemergence; settings: Zea mays, post-emergence, 240 h, Postemergence, read-out: Corn plant response rating (0 to 100 scale)
Summary of the method: as §1

[6] = test system: blackgrass (Alopecurus myosuroides); experiment: Test A postemergence; settings: Alopecurus myosuroides, post-emergence, 240 h, Postemergence, read-out: Blackgrass plant response rating (0 to 100 scale)
Summary of the method: as §1

[7] = test system: pigweed (Amaranthus retroflexus); experiment: Test A postemergence; settings: Amaranthus retroflexus, post-emergence, 240 h, Postemergence, read-out: Pigweed plant response rating (0 to 100 scale)
Summary of the method: as §1

Kochia (Kochia scoparia) [8] = experiment: Test A postemergence; settings: Bassia scoparia, post-emergence, 240 h, Postemergence, read-out: Kochia plant response rating (0 to 100 scale)
Summary of the method: as §1

[9] = test system: ragweed (common ragweed, Ambrosia elatior); experiment: Test A postemergence; settings: Ambrosia artemisiifolia, post-emergence, 240 h, Postemergence, read-out: Ragweed plant response rating (0 to 100 scale)
Summary of the method: as §1

[10] = test system: barnyardgrass (Echinochloa crus-galli); experiment: Test A preemergence; settings: Echinochloa crus-galli, pre-emergence, 240 h, 0 to 100 scale where 0 is no effect and 100 is complete control, read-out: Barnyardgrass plant response rating
Summary of the method: as §1

[11] = test system: giant foxtail (Setaria faberii); experiment: Test A preemergence; settings: Setaria faberi, pre-emergence, 240 h, 0 to 100 scale where 0 is no effect and 100 is complete control, read-out: Foxtail, Giant plant response rating
Summary of the method: as §1

[12] = test system: ryegrass, Italian (Italian ryegrass, Lolium multiflorum); experiment: Test A preemergence; settings: Lolium multiflorum, pre-emergence, 240 h, 0 to 100 scale where 0 is no effect and 100 is complete control, read-out: Ryegrass, Italian plant response rating
Summary of the method: as §1

[13] = test system: pigweed (Amaranthus retroflexus); experiment: Test A preemergence; settings: Amaranthus retroflexus, pre-emergence, 240 h, 0 to 100 scale where 0 is no effect and 100 is complete control, read-out: Pigweed plant response rating
Kochia (Kochia scoparia) [14] = experiment: Test A preemergence; settings: Bassia scoparia, pre-emergence, 240 h, 0 to 100 scale where 0 is no effect and 100 is complete control, read-out: Kochia plant response rating
Summary of the method: as §1

[15] = test system: ragweed (common ragweed, Ambrosia elatior); experiment: Test A preemergence; settings: Ambrosia artemisiifolia, pre-emergence, 240 h, 0 to 100 scale where 0 is no effect and 100 is complete control, read-out: Ragweed plant response rating
Summary of the method: as §1

[16] = test system: barnyardgrass (Echinochloa crus-galli); experiment: Test B flooded paddy test; settings: Echinochloa crus-galli, 250 g ai/ha, Flood; 0 to 100 scale where 0 is no effect and 100 is complete control; read-out: Barnyardgrass plant response rating
Summary of the method: (§2)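 Plants at 2-leaf stage flooded to 3 cm above soil, with compounds applied directly to paddy water and that depth maintained. Plants kept in greenhouse 13–15 d. Visual rating versus controls on a 0 (no effect) to 100 (complete control) scale.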

[17] = test system: sedge, umbrella (small-flower umbrella sedge, Cyperus difformis); experiment: Test B flooded paddy test; settings: Cyperus difformis, 250 g ai/ha, Flood; 0 to 100 scale where 0 is no effect and 100 is complete control; read-out: Sedge, Umbrella plant response rating
Summary of the method: as §2

rice (Oryra sativa) = experiment: Test B flooded paddy test; settings: Oryza sativa, 250 g ai/ha, Flood; 0 to 100 scale where 0 is no effect and 100 is complete control; read-out: Rice plant response rating
Summary of the method: as §2

[18] = test system: ducksalad (Heteranthera limosa); experiment: Test B flooded paddy test; settings: Heteranthera limosa, 250 g ai/ha, Flood; 0 to 100 scale where 0 is no effect and 100 is complete control; read-out: Ducksalad plant response rating
Summary of the method: as §2

[19] = 125 g ai/ha, visual rating about 10 d after treatment
[20] = 31 g ai/ha, 0 is no effect, 100 is complete control
[21] = 125 g ai/ha, preemergence, visual injury rating, approximately 10 d

O=C(Nc1cccc(F)c1F)[C@H]1C(=O)N(CC(F)F)C[C@@H]1c1cccc(C(F)(F)F)c1 [Compound 1296]
pest or weed control at 125 g/ha ([1]; 125 g ai/ha, visual rating about 10 d after treatment, read-out: Barnyardgrass plant response rating (0 to 100 scale, 0 no effect, 100 complete control)): 30% | pest or weed control at 31 g/ha ([1]; 31 g ai/ha, 0 is no effect, 100 is complete control, read-out: Barnyardgrass plant response rating (0 to 100 scale)): 0% | pest or weed control at 125 g/ha [2, 19]: 0% | pest or weed control at 31 g/ha [2, 20]: 0% | pest or weed control at 125 g/ha [3, 19]: 30% | pest or weed control at 31 g/ha [3, 20]: 0% | plant injury at 125 g/ha [4, 19]: 0% | plant injury at 31 g/ha [4, 20]: 0% | pest or weed control at 125 g/ha [5, 19]: 0% | pest or weed control at 31 g/ha [5, 20]: 0% | plant injury at 125 g/ha (corn (Zea mays); [19]): 0% | plant injury at 31 g/ha (corn (Zea mays); [20]): 0% | pest or weed control at 125 g/ha [6, 19]: 0% | pest or weed control at 31 g/ha [6, 20]: 0% | pest or weed control at 125 g/ha [7, 19]: 0% | pest or weed control at 31 g/ha [7, 20]: 0% | pest or weed control at 125 g/ha (Kochia (Kochia scoparia) [8]; [19]): 0% | pest or weed control at 31 g/ha (Kochia (Kochia scoparia) [8]; [20]): 0% | pest or weed control at 125 g/ha [9, 19]: 0% | pest or weed control at 31 g/ha [9, 20]: 0% | pest or weed control at 31 g/ha ([10]; 31 g ai/ha, Preemergence): 20% | pest or weed control at 125 g/ha [10, 21]: 70% | pest or weed control at 31 g/ha ([11]; 31 g ai/ha, Preemergence): 20% | pest or weed control at 125 g/ha [11, 21]: 60% | pest or weed control at 31 g/ha ([12]; 31 g ai/ha, Preemergence): 0% | pest or weed control at 125 g/ha [12, 21]: 0% | pest or weed control at 31 g/ha ([13]; 31 g ai/ha, Preemergence): 0% | pest or weed control at 125 g/ha [13, 21]: 0% | pest or weed control at 31 g/ha (Kochia (Kochia scoparia) [14]; 31 g ai/ha, Preemergence): 0% | pest or weed control at 125 g/ha (Kochia (Kochia scoparia) [14]; [21]): 0% | pest or weed control at 31 g/ha ([15]; 31 g ai/ha, Preemergence): 0% | pest or weed control at 125 g/ha [15, 21]: 0% | pest or weed control at 250 g/ha [16]: 15% | pest or weed control at 250 g/ha [17]: 0% | pest or weed control at 250 g/ha (rice (Oryra sativa)): 30% | pest or weed control at 250 g/ha [18]: 0%
